From article PMC8449129, “Single tracer-based protocol for broad-spectrum kinase profiling in live cells with NanoBRET” (STAR Protocols, 2021)

What was measured:
Assay in all cases: cell-based
Design in all cases: NanoBRET live-cell target engagement; % occupancy from displacement of tracer K10 on NanoLuc-kinase fusions, mean n=3
Conditions in all cases: HEK293, read-out: % inhibition
BMP2K = BMP2K (Homo sapiens, UniProt Q9NSY1)
Procedure: (§1) • 18. Prepare 10× test compounds in OptiMEM • a. Dilute the test compound to 1000× in DMSO (or the test compound solvent). […] Add 10μL per well of 10× test compound or 10μL of the DMSO control to the 96-well plates containing cells with 1× tracer. Mix on orbital shaker for 15 s at 900 rpm. • 20. Incubate the plate at 37°C + 5% CO2 incubator for 2hr. Allow plate to cool to RT for ∼15 min, then proceed to NanoBRET^TM Assay section below. • 21. Immediately before the BRET measurements, prepare 3× Complete NanoBRET^TM Nano-Glo® Substrate in OptiMEM without serum or phenol red. […] Mix gently by inverting 5–10 times in a conical tube. (The final concentration of Extracellular NanoLuc inhibitor in the 3× solution is 60 μM, for a working concentration of 20 μM.) • a. Note: 3× solutions should be used within 1.5 h after preparation. • 22. […] Incubate 2–3 min at RT. Following addition of NanoBRET^TM Nano-Glo® Substrate, measure donor emission (e.g., 450 nm) and acceptor emission (e.g., 610 nm or 630 nm) using a NanoBRET™-compatible luminometer. Fractional occupancy Quantitation • 2. Determine Fractional Occupancy with the following equation; % Occupancy = [1 – (X – Z)/( Y – Z)]∗100 • Where: • X = BRET in the presence of the test compound and tracer, • Y = BRET in the presence of the 100% BRET Control (Tracer + DMSO) • Z = BRET for the Zero BRET Control, e.g., • a. BRET from the NanoLuc Control Vector • b. BRET from Kinase/NanoLuc fusion + saturating dose of control test compound.

BRSK1 = BRSK1 (Homo sapiens, UniProt Q8TDC3)
Procedure: as §1

CDK16 = CDK16 (Homo sapiens, UniProt Q00536)
Procedure: as §1

CDK7 = CDK7 (Homo sapiens, UniProt P50613)
Procedure: as §1

CDK9 = CDK9 (Homo sapiens, UniProt P50750)
Procedure: as §1

CSNK1A1L = CSNK1A1L (Homo sapiens, UniProt Q8N752)
Procedure: as §1

HIPK4 = HIPK4 (Homo sapiens, UniProt Q8NE63)
Procedure: as §1

IGF1R = IGF1R (Homo sapiens, UniProt P08069)
Procedure: as §1

IKBKE = IKBKE (Homo sapiens, UniProt Q14164)
Procedure: as §1

IRAK3 = IRAK3 (Homo sapiens, UniProt Q9Y616)
Procedure: as §1

LATS1 = LATS1 (Homo sapiens, UniProt O95835)
Procedure: as §1

LCK = LCK (Homo sapiens, UniProt P06239)
Procedure: as §1

LIMK1 = LIMK1 (Homo sapiens, UniProt P53667)
Procedure: as §1

MAST3 = MAST3 (Homo sapiens, UniProt O60307)
Procedure: as §1

NEK4 = NEK4 (Homo sapiens, UniProt P51957)
Procedure: as §1

NEK5 = NEK5 (Homo sapiens, UniProt Q6P3R8)
Procedure: as §1

SIK3 = SIK3 (Homo sapiens, UniProt Q9Y2K2)
Procedure: as §1

ULK1 = ULK1 (Homo sapiens, UniProt O75385)
Procedure: as §1

IRAK3, sequence (Q9Y616 whole entry): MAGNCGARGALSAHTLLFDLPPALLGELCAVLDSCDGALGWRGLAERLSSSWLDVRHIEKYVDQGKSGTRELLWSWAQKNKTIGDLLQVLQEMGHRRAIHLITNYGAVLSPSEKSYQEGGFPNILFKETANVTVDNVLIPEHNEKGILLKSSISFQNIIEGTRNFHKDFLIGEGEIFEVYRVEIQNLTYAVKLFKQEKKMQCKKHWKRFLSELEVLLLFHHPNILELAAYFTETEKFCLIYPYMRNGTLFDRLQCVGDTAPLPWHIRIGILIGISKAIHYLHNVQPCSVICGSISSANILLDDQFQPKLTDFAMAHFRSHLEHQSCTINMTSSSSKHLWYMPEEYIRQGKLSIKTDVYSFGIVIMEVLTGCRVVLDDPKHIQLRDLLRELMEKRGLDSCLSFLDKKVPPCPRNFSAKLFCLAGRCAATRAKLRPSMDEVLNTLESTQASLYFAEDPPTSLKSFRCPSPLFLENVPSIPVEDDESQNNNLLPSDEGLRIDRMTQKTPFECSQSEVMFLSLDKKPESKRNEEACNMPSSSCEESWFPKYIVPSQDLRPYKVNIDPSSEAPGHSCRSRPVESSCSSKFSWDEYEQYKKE
BMP2K, sequence (Q9NSY1 whole entry): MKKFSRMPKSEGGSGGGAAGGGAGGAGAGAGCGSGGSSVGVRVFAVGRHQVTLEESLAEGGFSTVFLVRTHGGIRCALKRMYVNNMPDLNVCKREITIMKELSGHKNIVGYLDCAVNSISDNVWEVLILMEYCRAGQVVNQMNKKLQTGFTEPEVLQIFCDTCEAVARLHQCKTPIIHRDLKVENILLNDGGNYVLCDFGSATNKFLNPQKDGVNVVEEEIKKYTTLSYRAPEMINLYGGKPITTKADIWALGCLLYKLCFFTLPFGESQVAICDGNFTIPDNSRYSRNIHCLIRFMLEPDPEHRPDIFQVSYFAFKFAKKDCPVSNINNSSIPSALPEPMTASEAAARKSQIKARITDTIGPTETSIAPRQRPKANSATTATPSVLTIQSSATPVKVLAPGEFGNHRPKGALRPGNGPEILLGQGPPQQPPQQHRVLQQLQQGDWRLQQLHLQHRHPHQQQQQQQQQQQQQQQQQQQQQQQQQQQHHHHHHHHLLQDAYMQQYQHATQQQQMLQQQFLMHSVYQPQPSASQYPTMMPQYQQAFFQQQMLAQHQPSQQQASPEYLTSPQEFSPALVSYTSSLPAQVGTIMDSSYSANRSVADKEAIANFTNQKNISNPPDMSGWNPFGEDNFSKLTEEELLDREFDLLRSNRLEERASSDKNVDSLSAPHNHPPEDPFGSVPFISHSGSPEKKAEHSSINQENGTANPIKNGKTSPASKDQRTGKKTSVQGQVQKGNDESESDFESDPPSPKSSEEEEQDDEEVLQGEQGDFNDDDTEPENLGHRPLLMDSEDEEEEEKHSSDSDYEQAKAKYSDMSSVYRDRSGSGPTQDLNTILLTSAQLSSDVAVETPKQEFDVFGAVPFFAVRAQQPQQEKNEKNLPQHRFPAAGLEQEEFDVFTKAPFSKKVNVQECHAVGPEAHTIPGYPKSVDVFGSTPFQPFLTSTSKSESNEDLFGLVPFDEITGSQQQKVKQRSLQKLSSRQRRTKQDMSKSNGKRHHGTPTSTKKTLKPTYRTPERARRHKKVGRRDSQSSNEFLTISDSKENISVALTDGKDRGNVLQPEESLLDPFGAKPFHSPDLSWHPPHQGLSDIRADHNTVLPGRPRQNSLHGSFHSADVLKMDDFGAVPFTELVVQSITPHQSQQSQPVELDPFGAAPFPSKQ
NEK4, sequence (P51957 whole entry): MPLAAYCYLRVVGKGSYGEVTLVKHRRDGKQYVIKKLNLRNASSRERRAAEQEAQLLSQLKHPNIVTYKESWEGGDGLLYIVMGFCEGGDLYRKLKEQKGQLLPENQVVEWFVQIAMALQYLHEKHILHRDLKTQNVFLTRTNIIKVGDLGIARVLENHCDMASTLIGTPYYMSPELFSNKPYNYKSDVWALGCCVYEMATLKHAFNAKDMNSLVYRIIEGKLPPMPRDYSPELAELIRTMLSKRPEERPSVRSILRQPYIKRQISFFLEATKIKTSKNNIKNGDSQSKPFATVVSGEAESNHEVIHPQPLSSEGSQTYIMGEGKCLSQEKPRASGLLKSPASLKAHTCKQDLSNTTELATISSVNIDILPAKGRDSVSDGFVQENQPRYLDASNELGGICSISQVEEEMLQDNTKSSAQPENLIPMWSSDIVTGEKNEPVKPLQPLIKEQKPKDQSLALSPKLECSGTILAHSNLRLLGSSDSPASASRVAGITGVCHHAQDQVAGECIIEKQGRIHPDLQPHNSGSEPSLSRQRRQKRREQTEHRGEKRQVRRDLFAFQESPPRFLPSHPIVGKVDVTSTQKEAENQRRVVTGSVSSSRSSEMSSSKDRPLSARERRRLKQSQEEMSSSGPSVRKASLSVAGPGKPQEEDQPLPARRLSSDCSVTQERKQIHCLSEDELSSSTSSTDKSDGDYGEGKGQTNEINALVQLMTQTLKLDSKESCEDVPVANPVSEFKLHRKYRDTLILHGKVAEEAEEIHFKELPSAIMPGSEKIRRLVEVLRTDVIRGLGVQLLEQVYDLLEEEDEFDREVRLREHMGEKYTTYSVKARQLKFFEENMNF
MAST3, sequence (O60307 whole entry): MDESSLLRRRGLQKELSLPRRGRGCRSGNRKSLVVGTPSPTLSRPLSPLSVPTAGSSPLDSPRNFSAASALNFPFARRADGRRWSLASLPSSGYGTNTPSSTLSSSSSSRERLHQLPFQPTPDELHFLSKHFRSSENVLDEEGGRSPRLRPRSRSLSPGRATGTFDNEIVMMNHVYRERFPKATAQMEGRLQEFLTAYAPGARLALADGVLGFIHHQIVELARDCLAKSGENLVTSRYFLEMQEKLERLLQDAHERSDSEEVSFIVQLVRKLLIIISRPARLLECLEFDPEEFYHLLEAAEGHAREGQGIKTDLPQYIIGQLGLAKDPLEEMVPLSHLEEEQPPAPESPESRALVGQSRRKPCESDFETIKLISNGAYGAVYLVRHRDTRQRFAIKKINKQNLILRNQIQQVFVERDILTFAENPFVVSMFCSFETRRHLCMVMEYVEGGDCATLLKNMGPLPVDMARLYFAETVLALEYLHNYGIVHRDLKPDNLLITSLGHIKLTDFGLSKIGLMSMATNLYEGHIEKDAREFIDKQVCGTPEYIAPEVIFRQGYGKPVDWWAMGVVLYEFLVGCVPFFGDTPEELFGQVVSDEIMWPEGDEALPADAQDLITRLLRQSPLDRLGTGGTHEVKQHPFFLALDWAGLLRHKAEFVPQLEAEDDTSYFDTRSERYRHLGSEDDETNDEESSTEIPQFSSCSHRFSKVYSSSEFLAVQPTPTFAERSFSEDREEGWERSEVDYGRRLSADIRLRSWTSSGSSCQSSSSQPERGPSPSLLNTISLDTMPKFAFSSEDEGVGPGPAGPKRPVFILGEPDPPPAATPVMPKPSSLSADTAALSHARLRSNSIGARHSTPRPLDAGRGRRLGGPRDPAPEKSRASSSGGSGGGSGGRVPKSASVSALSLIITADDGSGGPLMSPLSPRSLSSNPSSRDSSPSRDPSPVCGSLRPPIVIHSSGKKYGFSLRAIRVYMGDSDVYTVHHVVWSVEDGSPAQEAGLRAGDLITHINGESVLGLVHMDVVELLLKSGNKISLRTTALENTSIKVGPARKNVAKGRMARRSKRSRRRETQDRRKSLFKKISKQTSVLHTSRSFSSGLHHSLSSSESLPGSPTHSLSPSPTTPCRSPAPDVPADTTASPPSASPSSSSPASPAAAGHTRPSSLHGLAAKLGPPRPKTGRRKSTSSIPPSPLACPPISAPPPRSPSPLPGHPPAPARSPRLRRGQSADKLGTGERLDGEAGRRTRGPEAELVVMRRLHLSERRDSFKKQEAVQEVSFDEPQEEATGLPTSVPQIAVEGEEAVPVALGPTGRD
CSNK1A1L, sequence (Q8N752 whole entry): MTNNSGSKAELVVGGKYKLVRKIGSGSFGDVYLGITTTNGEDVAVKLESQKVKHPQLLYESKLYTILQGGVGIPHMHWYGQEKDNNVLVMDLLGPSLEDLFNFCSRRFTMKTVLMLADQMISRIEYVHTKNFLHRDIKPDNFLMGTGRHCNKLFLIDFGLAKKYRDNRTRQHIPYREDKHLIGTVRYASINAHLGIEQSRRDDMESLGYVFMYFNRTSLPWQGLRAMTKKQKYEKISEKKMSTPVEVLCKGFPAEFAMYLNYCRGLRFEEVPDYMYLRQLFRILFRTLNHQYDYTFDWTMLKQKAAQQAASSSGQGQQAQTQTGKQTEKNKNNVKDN
BRSK1, sequence (Q8TDC3 whole entry): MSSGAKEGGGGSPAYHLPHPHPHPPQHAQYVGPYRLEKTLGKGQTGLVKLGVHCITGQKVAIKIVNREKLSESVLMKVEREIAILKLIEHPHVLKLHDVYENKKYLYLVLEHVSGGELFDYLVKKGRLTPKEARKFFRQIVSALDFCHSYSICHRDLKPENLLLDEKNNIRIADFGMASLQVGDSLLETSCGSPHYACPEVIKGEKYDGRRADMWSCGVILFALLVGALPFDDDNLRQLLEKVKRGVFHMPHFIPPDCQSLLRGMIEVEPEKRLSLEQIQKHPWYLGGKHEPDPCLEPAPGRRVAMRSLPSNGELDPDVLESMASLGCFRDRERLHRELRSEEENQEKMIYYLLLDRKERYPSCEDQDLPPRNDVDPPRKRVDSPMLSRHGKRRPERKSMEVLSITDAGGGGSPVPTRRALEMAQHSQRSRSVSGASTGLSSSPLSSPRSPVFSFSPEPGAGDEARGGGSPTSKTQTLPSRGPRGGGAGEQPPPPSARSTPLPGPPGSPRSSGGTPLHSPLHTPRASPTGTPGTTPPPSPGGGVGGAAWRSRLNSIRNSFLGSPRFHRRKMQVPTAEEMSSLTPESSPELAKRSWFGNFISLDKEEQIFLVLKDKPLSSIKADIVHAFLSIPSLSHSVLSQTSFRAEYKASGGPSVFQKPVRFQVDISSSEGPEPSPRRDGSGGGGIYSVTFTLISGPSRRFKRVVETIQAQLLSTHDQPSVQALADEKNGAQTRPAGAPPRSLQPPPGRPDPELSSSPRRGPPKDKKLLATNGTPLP

In the case of C[C@@H](Oc1cc(-c2cnn(C3CCNCC3)c2)cnc1N)c1c(Cl)ccc(F)c1Cl [crizotinib], the inhibition at 1 µM (BMP2K) is reported as 11%, the inhibition at 1 µM (BRSK1) is reported as -1% and the inhibition at 1 µM (CDK16) is reported as 2%. The inhibition at 1 µM (CDK7) was 32%, the inhibition at 1 µM (CDK9) was 4% and the inhibition at 1 µM (CSNK1A1L) was -6%. It also gave an inhibition at 1 µM (HIPK4) of -9%, an inhibition at 1 µM (IGF1R) of 18% and an inhibition at 1 µM (IKBKE) of 21%. It also gave an inhibition at 1 µM (IRAK3) of 42%, an inhibition at 1 µM (LATS1) of -10% and an inhibition at 1 µM (LCK) of 36%. It also gave an inhibition at 1 µM (LIMK1) of 29%, an inhibition at 1 µM (MAST3) of -1% and an inhibition at 1 µM (NEK4) of -12%. It also gave an inhibition at 1 µM (NEK5) of -6%, an inhibition at 1 µM (SIK3) of 0% and an inhibition at 1 µM (ULK1) of -1%.
